Where “and” joins values, the source holds several entries; their conditions need not be identical. Equal values may be shown once. Read-outs that look alike come from different tables or passages of the source.
Test system: adult H. polygyrus
Type: cell-based, Heligmosomoides polygyrus
Conditions: aerobic; for effect on adult H. polygyrus viability: 10 µM, 24-h exposure; for Percent Worms Affected: affected = score equal to or lower than 1.5; for Worm viability score of individual worm, scale from 0 (dead) to 3 (motile): single worms
Protocol: After either 24- or 72 h chemical treatment, worm viability was manually scored by an examiner using a scale from 0 (dead) to 3 (motile); DMSO was used as a negative control in both 24- and 72 h treatments. The percentage of affected worms (i.e., worms with a score equal to or lower than 1.5) in each biological replicate is shown; data are from two biological replicates. Within each boxplot, black horizontal lines denote group medians, boxes span from the 25th to the 75th percentile of each group’s distribution, and whiskers extend to the maximum and minimum values.
The eleven benzimidazole derivatives were tested at a concentration of 10 µM under aerobic conditions against L3 and adult H. polygyrus.
For the larval assay, mice feces were collected 2 weeks post-infection and eggs were isolated. The eggs were left on agar at room temperature in the dark for eight to 10 days to allow them to develop into L3. Next, 30–40 L3 were incubated (37 °C, 5% CO2) in the culture medium (RPMI 1640 medium + 1% pen./strep. + 5% amphotericin B) containing the derivatives in 96-well plate (Corning, USA) reaching a final volume of 250 µL for 24 h. For the adult drug screening assay, female NMRI mice were euthanized with CO2 and adult H. polygyrus were dissected out of the intestines. Subsequently, three worms were exposed to the culture medium (RPMI 1640 medium + 1% pen./strep. + 5% amphotericin B) with the derivatives (2 mL) in a 24-well plate (Corning, USA) for either 24 or 72 h. DMSO ( < 1%) served as a negative control in both assays. All conditions were tested in duplicates. Finally, 80 µL of hot water ( ~ 80 °C) for L3 and 500 µL of hot water (~80 °C) for adults were added to the wells to check for their viability under a microscope (Carl Zeiss, Germany). Larvae were categorized as being either alive or dead, depending on whether they moved or not. […] The whole experiment was performed two times i.e., two independent biological replicates for both life stages (L3s and adults) and exposure times (24 and 72 h).

[1] = adult H. polygyrus, replicate 1, 24 hours after treatment
[2] = adult H. polygyrus, replicate 2, 24 hours after treatment
[3] = adult H. polygyrus, in vitro, 24 hours, per biological replicate
[4] = adult H. polygyrus, in vitro, 24 hours
[5] = adult H. polygyrus, in vitro, 72 hours, per biological replicate
[6] = adult H. polygyrus, in vitro, 72 hours
[7] = replicate 1, 24 hours after treatment, worms with score equal to or lower than 1.5
[8] = replicate 2, 24 hours after treatment, worms with score equal to or lower than 1.5

Compound | effect on adult H. polygyrus viability | Percent Worms Affected [1] | Percent Worms Affected [2] | # of Worms Affected [3] | Percent Worms Affected (worms with a score equal to or lower than 1.5) [3] | Worm viability score of individual worm, scale from 0 (dead) to 3 (motile) [4] | Percent Worms Affected (worms with a score equal to or lower than 1.5) [5] | Worm viability score of individual worm, scale from 0 (dead) to 3 (motile) [6] | # of Worms Affected [7] | # of Worms Affected [8] | # of Worms Affected [5]
Cc1ccccc1OCCCCn1cnc2ccccc21 [Compound 7732524] | potent effects | 100% | 67% | 4 and 6 | 67% | 1.25 (4×) and 1 | 83% and 100% | 0.5 | 6 | 4 | 
Cc1nc2ccccc2n1Cc1ccccc1Cl [Compound 6707368] |  | 0% | 14% |  | 0% and 14% | 2.5 | 29% and 100% | 1.5 | 0 | 1 | 
Cc1nc2ccccc2n1Cc1ccc(Br)cc1 [Compound 5567167] |  | 33% | 17% |  | 33% and 17% | 2.5 and 2 and 1.5 | 83% and 100% | 1.5 | 2 | 1 | 
Cc1nc2ccccc2n1Cc1ccc(Cl)cc1 [STK697993] |  | 17% | 17% | 1 | 17% | 2.5 and 1.5 | 17% and 100% |  | 1 | 1 | 
CCn1c(C(C)c2ccc(CC(C)C)cc2)nc2ccccc21 (stereo not shown) [STK951902] | potent effects | 67% | 83% |  | 67% and 83% | 2 and 1 and 1.5 | 100% and 67% |  | 4 | 5 | 
CC(C)Cc1ccc(C(C)c2nc3ccccc3n2C(C)C)cc1 (stereo not shown) [STK951903] |  | 67% | 14% |  | 67% and 14% | 1.5 and 2.5 and 2 | 100% |  | 4 | 1 | 6
Clc1ccc(Cn2cnc3ccccc32)c(Cl)c1 [Compound 6750659] |  | 33% | 17% |  | 33% and 17% | 1.5 and 2.5 | 33% and 100% | 1.5 | 2 | 1 | 
Brc1ccc(Cn2cnc3ccccc32)cc1 [Compound 5542661] |  |  |  |  | 17% and 0% | 2.5 and 2 | 17% and 83% | 1.5 |  |  | 
Clc1ccc(SCCCCn2cnc3ccccc32)cc1 [Compound 7925515] | potent effects | 100% | 50% |  | 50% and 100% | 1.5 | 100% |  | 6 | 4 | 
